Reference: the NIST ThermoML archive (doi:10.1016/j.jct.2004.07.024)
± gives the expanded uncertainty stated by the source.

Assay: xn = mol fraction of the nth substance listed
Conditions: 101.33 kPa, Liquid

CCc1ccccc1 [ethylbenzene] + C[S+](C)[O-]
Conditions | mass density [kg/m3]
293.15 K, x1 = 0.0626 | 1076.31 ± 0.31
293.15 K, x1 = 0.1596 | 1043.57 ± 0.29
293.15 K, x1 = 0.2203 | 1025.03 ± 0.29
293.15 K, x1 = 0.2983 | 1003.06 ± 0.29
293.15 K, x1 = 0.3698 | 984.55 ± 0.31
293.15 K, x1 = 0.4623 | 962.58 ± 0.35
293.15 K, x1 = 0.5186 | 950.18 ± 0.38
293.15 K, x1 = 0.5712 | 939.18 ± 0.4
293.15 K, x1 = 0.6285 | 927.89 ± 0.42
293.15 K, x1 = 0.6802 | 918.18 ± 0.44
293.15 K, x1 = 0.7525 | 905.36 ± 0.47
293.15 K, x1 = 0.8102 | 895.69 ± 0.49
293.15 K, x1 = 0.8723 | 885.81 ± 0.51
293.15 K, x1 = 0.9456 | 874.79 ± 0.53
303.15 K, x1 = 0.0669 | 1065.53 ± 0.29
303.15 K, x1 = 0.1456 | 1038.79 ± 0.28
303.15 K, x1 = 0.2569 | 1005.2 ± 0.28
303.15 K, x1 = 0.3203 | 988 ± 0.3
303.15 K, x1 = 0.3956 | 969 ± 0.33
303.15 K, x1 = 0.4569 | 954.63 ± 0.36
303.15 K, x1 = 0.5132 | 942.23 ± 0.38
303.15 K, x1 = 0.5856 | 927.28 ± 0.41
303.15 K, x1 = 0.6277 | 919.04 ± 0.42
303.15 K, x1 = 0.7065 | 904.51 ± 0.45
303.15 K, x1 = 0.7856 | 890.93 ± 0.48
303.15 K, x1 = 0.8359 | 882.8 ± 0.5
303.15 K, x1 = 0.8856 | 875.1 ± 0.52
303.15 K, x1 = 0.9503 | 865.51 ± 0.54
313.15 K, x1 = 0.0624 | 1056.77 ± 0.28
313.15 K, x1 = 0.1459 | 1028.39 ± 0.27
313.15 K, x1 = 0.2201 | 1005.62 ± 0.27
313.15 K, x1 = 0.2692 | 991.65 ± 0.28
313.15 K, x1 = 0.3314 | 975.03 ± 0.31
313.15 K, x1 = 0.3963 | 958.87 ± 0.34
313.15 K, x1 = 0.4456 | 947.35 ± 0.36
313.15 K, x1 = 0.4965 | 936.07 ± 0.38
313.15 K, x1 = 0.5216 | 930.71 ± 0.39
313.15 K, x1 = 0.5986 | 915.08 ± 0.42
313.15 K, x1 = 0.6853 | 898.86 ± 0.45
313.15 K, x1 = 0.7526 | 887.13 ± 0.48
313.15 K, x1 = 0.8418 | 872.68 ± 0.51
313.15 K, x1 = 0.9258 | 860.05 ± 0.54
323.15 K, x1 = 0.0625 | 1046.39 ± 0.27
323.15 K, x1 = 0.1786 | 1007.95 ± 0.26
323.15 K, x1 = 0.2469 | 987.84 ± 0.28
323.15 K, x1 = 0.3095 | 970.78 ± 0.3
323.15 K, x1 = 0.3698 | 955.5 ± 0.33
323.15 K, x1 = 0.4152 | 944.61 ± 0.35
323.15 K, x1 = 0.4723 | 931.67 ± 0.38
323.15 K, x1 = 0.5362 | 918.08 ± 0.4
323.15 K, x1 = 0.6048 | 904.45 ± 0.43
323.15 K, x1 = 0.6604 | 894.04 ± 0.45
323.15 K, x1 = 0.7301 | 881.76 ± 0.48
323.15 K, x1 = 0.7992 | 870.36 ± 0.5
323.15 K, x1 = 0.8683 | 859.65 ± 0.52
323.15 K, x1 = 0.9226 | 851.65 ± 0.54
333.15 K, x1 = 0.066 | 1034.83 ± 0.25
333.15 K, x1 = 0.1159 | 1017.74 ± 0.25
333.15 K, x1 = 0.1896 | 994.42 ± 0.25
333.15 K, x1 = 0.2156 | 986.74 ± 0.27
333.15 K, x1 = 0.2765 | 969.61 ± 0.3
333.15 K, x1 = 0.3286 | 955.9 ± 0.32
333.15 K, x1 = 0.3964 | 939.26 ± 0.35
333.15 K, x1 = 0.4598 | 924.75 ± 0.38
333.15 K, x1 = 0.5349 | 908.81 ± 0.41
333.15 K, x1 = 0.6126 | 893.53 ± 0.44
333.15 K, x1 = 0.6861 | 880.14 ± 0.47
333.15 K, x1 = 0.7698 | 865.99 ± 0.5
333.15 K, x1 = 0.8459 | 854.04 ± 0.52
333.15 K, x1 = 0.9025 | 845.66 ± 0.54
343.15 K, x1 = 0.0599 | 1026.68 ± 0.24
343.15 K, x1 = 0.1569 | 994.32 ± 0.24
343.15 K, x1 = 0.2363 | 970.71 ± 0.28
343.15 K, x1 = 0.3001 | 953.33 ± 0.31
343.15 K, x1 = 0.3895 | 931.07 ± 0.36
343.15 K, x1 = 0.4519 | 916.81 ± 0.38
343.15 K, x1 = 0.5163 | 903.06 ± 0.41
343.15 K, x1 = 0.5698 | 892.31 ± 0.43
343.15 K, x1 = 0.6389 | 879.27 ± 0.46
343.15 K, x1 = 0.6895 | 870.27 ± 0.47
343.15 K, x1 = 0.7558 | 859.13 ± 0.5
343.15 K, x1 = 0.8106 | 850.44 ± 0.52
343.15 K, x1 = 0.8895 | 838.64 ± 0.54
343.15 K, x1 = 0.9502 | 830.09 ± 0.56
353.15 K, x1 = 0.059 | 1016.69 ± 0.23
353.15 K, x1 = 0.1555 | 984.6 ± 0.25
353.15 K, x1 = 0.2236 | 964.29 ± 0.29
353.15 K, x1 = 0.2856 | 947.23 ± 0.32
353.15 K, x1 = 0.3384 | 933.66 ± 0.34
353.15 K, x1 = 0.4089 | 916.78 ± 0.37
353.15 K, x1 = 0.4625 | 904.82 ± 0.39
353.15 K, x1 = 0.5185 | 893.03 ± 0.42
353.15 K, x1 = 0.5665 | 883.47 ± 0.44
353.15 K, x1 = 0.6255 | 872.34 ± 0.46
353.15 K, x1 = 0.6706 | 864.28 ± 0.48
353.15 K, x1 = 0.7556 | 850 ± 0.51
353.15 K, x1 = 0.8326 | 838.04 ± 0.53
353.15 K, x1 = 0.9129 | 826.41 ± 0.56
